In US20250313548A1 (Actio Biosciences, Inc., priority 2023, published 2025):

Target: human, KCNT1 (Homo sapiens (Human), UniProt Q5JUK3)
Test: FLIPR Tl/K Flux Assay
Type: cell-based
Conditions: HEK293 cells stably expressing human KCNT1; Tl+ flux stimulated with EC80 of agonist Loxapine
Outline: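 Inhibition values come from a Hill-equation fit of % inhibition versus log concentration, using normalized fluorescence (Fmax/Fmin) over a 160 s read. The read followed stimulation with Tl+ plus EC80 agonist loxapine after 30 min compound pre-incubation at 25 °C. Cells were KCNT1-expressing HEK293, dye-loaded 1 h in pH 7.4 HEPES/HBSS with 5 mM probenecid.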

Sequence of human, KCNT1 (Q5JUK3 whole entry): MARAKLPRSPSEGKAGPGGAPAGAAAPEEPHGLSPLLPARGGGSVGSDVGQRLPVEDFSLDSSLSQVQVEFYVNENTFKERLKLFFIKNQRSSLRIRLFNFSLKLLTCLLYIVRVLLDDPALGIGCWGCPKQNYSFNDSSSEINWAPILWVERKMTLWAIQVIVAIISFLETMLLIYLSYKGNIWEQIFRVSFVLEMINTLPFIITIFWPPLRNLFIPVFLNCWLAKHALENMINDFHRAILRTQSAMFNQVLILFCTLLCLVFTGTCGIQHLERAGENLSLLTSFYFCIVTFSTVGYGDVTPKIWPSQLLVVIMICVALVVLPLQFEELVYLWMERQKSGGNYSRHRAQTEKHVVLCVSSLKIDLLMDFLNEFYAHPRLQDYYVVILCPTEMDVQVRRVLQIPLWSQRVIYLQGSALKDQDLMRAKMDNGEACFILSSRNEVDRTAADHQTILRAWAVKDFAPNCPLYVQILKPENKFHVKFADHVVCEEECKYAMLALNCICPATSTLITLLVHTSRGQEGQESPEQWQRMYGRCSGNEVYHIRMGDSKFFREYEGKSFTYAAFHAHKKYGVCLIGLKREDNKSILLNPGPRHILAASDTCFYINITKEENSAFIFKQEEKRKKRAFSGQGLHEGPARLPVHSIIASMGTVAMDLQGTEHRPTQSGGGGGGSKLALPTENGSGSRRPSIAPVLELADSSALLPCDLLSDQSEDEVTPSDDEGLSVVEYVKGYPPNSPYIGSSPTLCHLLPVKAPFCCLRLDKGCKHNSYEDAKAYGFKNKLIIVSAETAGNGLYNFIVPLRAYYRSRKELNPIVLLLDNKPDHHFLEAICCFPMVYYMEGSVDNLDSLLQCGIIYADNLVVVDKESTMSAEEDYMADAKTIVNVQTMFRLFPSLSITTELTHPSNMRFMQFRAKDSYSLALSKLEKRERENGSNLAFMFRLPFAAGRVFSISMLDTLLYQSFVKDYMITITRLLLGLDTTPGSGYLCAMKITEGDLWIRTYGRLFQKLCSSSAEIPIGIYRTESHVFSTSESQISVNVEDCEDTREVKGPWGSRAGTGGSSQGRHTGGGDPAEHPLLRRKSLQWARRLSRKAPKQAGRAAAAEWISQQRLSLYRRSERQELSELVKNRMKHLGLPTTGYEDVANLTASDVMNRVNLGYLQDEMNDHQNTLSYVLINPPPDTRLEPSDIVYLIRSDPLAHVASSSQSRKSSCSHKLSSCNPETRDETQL

SMILES | IC50 [nM]
Cc1cnc(C(F)(F)F)cc1-c1cc2n(n1)CCC[C@@H]2NC(=O)c1cc(C(F)(F)F)nn1C [Compound I-122a, (S)-1-Methyl-N-(2-(5-methyl-2-(trifluoromethyl)pyridin-4-yl)-4,5,6,7-tetrahydropyrazolo[1,5-a]pyridin-4-yl)-3-(trifluoromethyl)-1H-pyrazole-5-carboxamide] | < 250
Cn1nc(C(F)(F)F)cc1C(=O)N[C@H]1CCn2nc(-c3ccnc(C(F)(F)F)c3)cc21 [Compound I-123a, (S)-1-methyl-3-(trifluoromethyl)-N-(2-(2-(trifluoromethyl)pyridin-4-yl)-5,6-dihydro-4H-pyrrolo[1,2-b]pyrazol-4-yl)-1H-pyrazole-5-carboxamide] | < 250
Cn1nc(C(F)(F)F)cc1C(=O)N[C@@H]1CCn2nc(-c3ccnc(C(F)(F)F)c3)cc21 [Compound I-123b, (R)-1-methyl-3-(trifluoromethyl)-N-(2-(2-(trifluoromethyl)pyridin-4-yl)-5,6-dihydro-4H-pyrrolo[1,2-b]pyrazol-4-yl)-1H-pyrazole-5-carboxamide] | 250 to 500
COc1cc(C(=O)N[C@H]2CCCn3nc(-c4ccnc(C(F)(F)F)c4)cc32)cc(OC)n1 [Compound I-124a, (S)-2,6-Dimethoxy-N-(2-(2-(trifluoromethyl)pyridin-4-yl)-4,5,6,7-tetrahydropyrazolo[1,5-a]pyridin-4-yl)isonicotinamide] | < 250
Cc1nc(C(F)(F)F)oc1C(=O)N[C@H]1CCCn2nc(-c3ccnc(C(F)(F)F)c3)cc21 [Compound I-125a, (S)-4-Methyl-2-(trifluoromethyl)-N-(2-(2-(trifluoromethyl)pyridin-4-yl)-4,5,6,7-tetrahydropyrazolo[1,5-a]pyridin-4-yl)oxazole-5-carboxamide] | < 250
COc1cc(-c2cc3n(n2)CCCC[C@@H]3NC(=O)c2cc(C(F)(F)F)nn2C)ccn1 [Compound I-126a, (S)—N-(2-(2-Methoxypyridin-4-yl)-5,6,7,8-tetrahydro-4H-pyrazolo[1,5-a]azepin-4-yl)-1-methyl-3-(trifluoromethyl)-1H-pyrazole-5-carboxamide] | < 250
CCc1cc(F)cc(C(=O)N[C@H]2CCc3nn(-c4ccnc(C(F)(F)F)c4)cc32)c1 [Compound I-127a, (S)-3-Ethyl-5-fluoro-N-(2-(2-(trifluoromethyl)pyridin-4-yl)-2,4,5,6-tetrahydrocyclopenta[c]pyrazol-4-yl)benzamide] | < 250
CCc1cc(F)cc(C(=O)N[C@@H]2CCc3nn(-c4ccnc(C(F)(F)F)c4)cc32)c1 [Compound I-127b] | < 250
N#Cc1cccc(C(=O)N[C@H]2CCCn3nc(-c4ccnc(C(F)(F)F)c4)cc32)c1 [Compound I-128a, (S)-3-Cyano-N-(2-(2-(trifluoromethyl)pyridin-4-yl)-4,5,6,7-tetrahydropyrazolo[1,5-a]pyridin-4-yl)benzamide] | < 250
O=C(N[C@H]1CCCc2oc(-c3ccnc(C4CC4)c3)nc21)c1cc(C(F)(F)F)n(C(F)F)n1 [Compound I-130a, (S)-N-(2-(2-Cyclopropylpyridin-4-yl)-4,5,6,7-tetrahydrobenzo[d]oxazol-4-yl)-1-(difluoromethyl)-5-(trifluoromethyl)-1H-pyrazole-3-carboxamide] | < 250
O=C(N[C@H]1CCCc2oc(-c3ccnc(C4CC4)c3)nc21)c1cccc(F)c1 [Compound I-131a, (S)-N-(2-(2-Cyclopropylpyridin-4-yl)-4,5,6,7-tetrahydrobenzo[d]oxazol-4-yl)-3-fluorobenzamide] | < 250
O=C(N[C@H]1CCCc2oc(-c3ccnc(C4CC4)c3)nc21)c1cncc(F)c1 [Compound I-132a, (S)-N-(2-(2-Cyclopropylpyridin-4-yl)-4,5,6,7-tetrahydrobenzo[d]oxazol-4-yl)-5-fluoronicotinamide] | < 250
O=C(N[C@H]1CCc2nc(-c3ccnc(C(F)(F)F)c3)ccc21)c1cccc(C(F)(F)F)c1 [Compound I-133a, (S)-3-(Trifluoromethyl)-N-(2-(2-(trifluoromethyl)pyridin-4-yl)-6,7-dihydro-5H-cyclopenta[b]pyridin-5-yl)benzamide] | < 250

The remaining lines, values ahead:

IC50 [nM] | SMILES
< 250 | Cn1nc(C(F)(F)F)cc1C(=O)N[C@H]1CCc2nc(-c3ccnc(C(F)(F)F)c3)ccc21 [Compound I-134a, (S)-1-Methyl-3-(trifluoromethyl)-N-(2-(2-(trifluoromethyl)pyridin-4-yl)-6,7-dihydro-5H-cyclopenta[b]pyridin-5-yl)-1H-pyrazole-5-carboxamide]
< 250 | COc1cc(-c2nc3c(o2)[C@@H](NC(=O)c2ccnc(OC(F)(F)F)c2)CCC3)ccn1 [Compound I-135a, (S)-N-(2-(2-Methoxypyridin-4-yl)-4,5,6,7-tetrahydrobenzo[d]oxazol-7-yl)-2-(trifluoromethoxy)isonicotinamide]
< 250 | O=C(N[C@H]1CCCc2oc(-c3ccnc(C4CC4)c3)nc21)c1cncc(C(F)(F)F)c1 [Compound I-137a, (S)-N-(2-(2-Cyclopropylpyridin-4-yl)-4,5,6,7-tetrahydrobenzo[d]oxazol-4-yl)-5-(trifluoromethyl)nicotinamide]
< 250 | O=C(N[C@H]1CCn2nc(-c3ccnc(C(F)(F)F)c3)cc21)C12CC(C(F)(F)F)(C1)C2 [Compound I-138a, (S)-3-(Trifluoromethyl)-N-(2-(2-(trifluoromethyl)pyridin-4-yl)-5,6-dihydro-4H-pyrrolo[1,2-b]pyrazol-4-yl)bicyclo[1.1.1]pentane-1-carboxamide]
< 250 | O=C(N[C@H]1CCn2nc(-c3cc(C(F)(F)F)ncc3F)cc21)c1cccc(C(F)(F)F)c1 [Compound I-139a, (S)-N-(2-(5-Fluoro-2-(trifluoromethyl)pyridin-4-yl)-5,6-dihydro-4H-pyrrolo[1,2-b]pyrazol-4-yl)-3-(trifluoromethyl)benzamide]
< 250 | Cc1cc(C#N)cc(C(=O)N[C@H]2CCn3nc(-c4cc(C(F)(F)F)ncc4F)cc32)c1 [Compound I-140a]
< 250 | Cc1cnc(C(F)(F)F)cc1-c1cc2n(n1)CC[C@@H]2NC(=O)c1nc(C(F)(F)F)nn1C [Compound I-141a, (S)-1-Methyl-N-(2-(5-methyl-2-(trifluoromethyl)pyridin-4-yl)-5,6-dihydro-4H-pyrrolo[1,2-b]pyrazol-4-yl)-3-(trifluoromethyl)-1H-1,2,4-triazole-5-carboxamide]
< 250 | Cn1nc(C(F)(F)F)nc1C(=O)N[C@H]1CCn2nc(-c3cc(C(F)(F)F)ncc3Cl)cc21 [Compound I-142a, (S)-N-(2-(5-Chloro-2-(trifluoromethyl)pyridin-4-yl)-5,6-dihydro-4H-pyrrolo[1,2-b]pyrazol-4-yl)-1-methyl-3-(trifluoromethyl)-1H-1,2,4-triazole-5-carboxamide]
> 1000 | COc1cc(-c2nc3c(o2)[C@@H](NC(=O)c2cncc(C(F)(F)F)n2)CCC3)ccn1 [Compound I-143a, (S)-N-(2-(2-Methoxypyridin-4-yl)-4,5,6,7-tetrahydrobenzo[d]oxazol-7-yl)-6-(trifluoromethyl)pyrazine-2-carboxamide]
< 250 | Cc1cnc(C(F)(F)F)cc1-c1cc2n(n1)CC[C@@H]2NC(=O)c1cccc(C#N)c1 [Compound I-144a, (S)-3-Cyano-N-(2-(5-methyl-2-(trifluoromethyl)pyridin-4-yl)-5,6-dihydro-4H-pyrrolo[1,2-b]pyrazol-4-yl)benzamide]
< 250 | COc1cc(C(=O)N[C@H]2CCn3nc(-c4cc(C(F)(F)F)ncc4F)cc32)ccn1 [Compound I-145a, (S)—N-(2-(5-Fluoro-2-(trifluoromethyl)pyridin-4-yl)-5,6-dihydro-4H-pyrrolo[1,2-b]pyrazol-4-yl)-2-methoxyisonicotinamide]
< 250 | Cn1nc(C(F)(F)F)nc1C(=O)N[C@H]1CCn2nc(-c3ccnc(C(C)(F)F)c3)cc21 [Compound I-146a, (S)—N-(2-(2-(1,1-Difluoroethyl)pyridin-4-yl)-5,6-dihydro-4H-pyrrolo[1,2-b]pyrazol-4-yl)-1-methyl-3-(trifluoromethyl)-1H-1,2,4-triazole-5-carboxamide]
< 250 | O=C(N[C@H]1CCn2nc(-c3ccnc(C(F)(F)F)c3)cc21)C1CC(C(F)(F)F)C1 (stereo partly drawn) [Compound I-147a, (S)-3-(Trifluoromethyl)-N-(2-(2-(trifluoromethyl)pyridin-4-yl)-5,6-dihydro-4H-pyrrolo[1,2-b]pyrazol-4-yl)cyclobutane-1-carboxamide]
< 250 | COc1cc(-c2nc3c(o2)[C@@H](NC(=O)c2cc(Cl)cc(Cl)c2)CCC3)ccn1 [Compound I-150a, (S)-3,5-Dichloro-N-(2-(2-methoxypyridin-4-yl)-4,5,6,7-tetrahydrobenzo[d]oxazol-7-yl)benzamide]
< 250 | COc1cc(-c2nc3c(o2)[C@@H](NC(=O)c2cccc(OC(F)(F)F)c2)CCC3)ccn1 [Compound I-151a, (S)-N-(2-(2-Methoxypyridin-4-yl)-4,5,6,7-tetrahydrobenzo[d]oxazol-7-yl)-3-(trifluoromethoxy)benzamide]
< 250 | O=C(N[C@H]1CCCc2nc(-c3ccnc(C4CC4)c3)oc21)c1cncc(C(F)(F)F)n1 [Compound I-152a, (S)-N-(2-(2-Cyclopropylpyridin-4-yl)-4,5,6,7-tetrahydrobenzo[d]oxazol-7-yl)-6-(trifluoromethyl)pyrazine-2-carboxamide]
< 250 | O=C(N[C@H]1CCCc2nc(-c3ccnc(C4CC4)c3)oc21)c1cc(Cl)cc(Cl)c1 [Compound I-153a, (S)-3,5-Dichloro-N-(2-(2-cyclopropylpyridin-4-yl)-4,5,6,7-tetrahydrobenzo[d]oxazol-7-yl)benzamide]
< 250 | Cn1nc(C(F)F)nc1C(=O)N[C@H]1CCn2nc(-c3ccnc(C(F)(F)F)c3)cc21 [Compound I-155a, (S)-3-(Difluoromethyl)-1-methyl-N-(2-(2-(trifluoromethyl)pyridin-4-yl)-5,6-dihydro-4H-pyrrolo[1,2-b]pyrazol-4-yl)-1H-1,2,4-triazole-5-carboxamide]
< 250 | O=C(N[C@H]1CCCc2nc(-c3cc(C4CC4)ncc3F)oc21)c1cncc(C(F)(F)F)n1 [Compound I-156a]
